The subject of one assay is HCT116. Description: MTT cytotoxicity assay, HCT116. Particulars: 72 h. It counts as cell-based, human. The text has this:
One of the parameters used as the basis for colorimetric assays is the metabolic activity of viable cells. For example, a microtiter assay which uses the tetrazolium salt MTT is now widely used to quantitate cell proliferation and cytotoxicity (Hájduch et al., Cytotechnology, 19, 1996, 243-245). For instance, this assay is used in drug screening programs and in chemosensitivity testing. Because tetrazolium salts are cleaved only by metabolically active cells, these assays exclusively detect viable cells. In the case of the MTT assay, yellow soluble tetrazolium salt is reduced to a coloured water-insoluble formazan salt. After it is solubilized, the formazan formed can easily and rapidly be quantified in a conventional ELISA plate reader at 570 nm (maximum absorbancy). The quantity of reduced formazan corresponds to the number of vital cells in the culture.
All cells were purchased from the […] (ATCC), unless otherwise indicated: the CEM line are highly chemosensitive T-lymphoblastic leukemia cells, K562 cells were derived from patient with […] with bcr-abl translocation, A549 line is lung adenocarcinoma, HCT116 is colorectal tumor cell line and its p53 gene knock-down counterpart (HCT116p53−) is a model of human cancers with p53 mutation frequently associated with poor prognosis. The daunorubicin resistant subline of CEM cells (CEM-DNR bulk) and paclitaxel resistant subline K562-tax were selected in our laboratory by the cultivation of maternal cell lines in increasing concentrations of daunorubicine or paclitaxel, respectively (Noskova et al., Neoplasma 49, 2002, 418). The CEM-DNR bulk cells overexpress MRP-1 protein, while K562-tax cells overexpress P-glycoprotein, both proteins belong to family of ABC transporters and are involved in primary and/or acquired multidrug resistance phenomenon (Noskova et al., Neoplasma 49, 2002, 418). The cells were maintained in Nunc/Corning 80 cm^2 plastic tissue culture flasks and cultured in cell culture medium (DMEM/RPMI 1640 with 5 g/l glucose, 2 mM glutamine, 100 U/ml penicillin, 100 μg/ml streptomycin, 10% fetal calf serum, and NaHCO3).
This assay was performed according to Hajduch et al., Anti-Cancer Drugs 10, 1997, 1007. Cell suspensions were prepared and diluted according to the particular cell type and the expected target cell density (2 500-30 000 cells/well based on cell growth characteristics). Cells were added by pipette (80 μl) into 96-well microtiter plates. Inoculates were allowed a pre-incubation period of 24 h at 37° C. and 5% CO2 for stabilization. Four-fold dilutions, in 20-μl aliquots, of the intended test concentration were added to the microtiter plate wells at time zero. All test compound concentrations were examined in duplicate. Incubation of the cells with the test compounds lasted for 72 h at 37° C., in a 5% CO2 atmosphere at 100% humidity. At the end of the incubation period, the cells were assayed using MTT. Aliquots (10 μl) of the MTT stock solution were pipetted into each well and incubated for a further 1-4 h. After this incubation period the formazan produced was dissolved by the addition of 100 μl/well of 10% aq SDS (pH=5.5), followed by a further incubation at 37° C. overnight. The optical density (OD) was measured at 540 nm with a Labsystem iEMS Reader MF. Tumor cell survival (TCS) was calculated using the following equation: TCS=(ODdrug-exposed well/mean ODcontrol wells)×100%. The TCS50 value, the drug concentration lethal to 50% of the tumor cells, was calculated from appropriate dose-response curves.

Another assay relates to CCRF-CEM cells. Description: Flow cytometric measurement of intracellular pH (pHi), CA IX negative CCRF-CEM. The class given is cell-based, human. The settings on record: carboranes at 1 μM, 24 hour incubation, control 7.362. How it is done:
The effect of carborane CAIX (carbonic anhydrase IX) inhibitors was evaluated on colorectal cancer cell line HCT116 expressing CAIX enzyme versus CA IX negative cell line of T-lymphoblastic leukemia CCRF-CEM. Acetazolamide, a known inhibitor of CAIX, was used as a standard. HCT116/CCRF-CEM cells were cultivated in McCoy/RPMI Media supplemented with 10% FCS and antibiotics and seeded at high density ([…] per 3.5 cm dish) to induce pericellular hypoxia and thus stimulate CA IX expression. Measurement of pHi was assessed as described in Cianchi et al. [Cianchi F., et al. Selective inhibition of carbonic anhydrase IX decreases cell proliferation and induces […] apoptosis in human cancer cells. The Journal of Pharmacology and Experimental Therapeutics, 2010, Vol. 334, No. 3, 710-719].
[…] The pHi was measured by flow cytometry in cell cultures pretreated with 10 μM of pH sensitive probe carboxyseminaphtorhoda-fluor-1-acetoxymethyl ester (SNARF, Invitrogen, CA) for 15 min at 37° C. After incubation, the cells were washed twice with PBS. Because the addition of bicarbonate can affect pHi, all incubation and cell washes were performed in bicarbonate-free buffer. SNARF was excited at 488 nm and emitted at 580 and 640 nm. The ratio of the emission wavelengths at 640/580 nm was then used to estimate the pHi from a calibration curve. The calibration curve was prepared by nigericin clamp technique. In this method, after the SNARF labeling of untreated cells, aliquots of cell suspensions were re-suspended in a high potassium containing buffer at specific pH (usually 6.8, 7.0, 7.2, 7.4, 7.6 and 7.8). The cell suspensions were then clamped at a specific pH value by the addition of 0.03 μM nigericin (Sigma-Aldrich). Nigericin is a ionophore that allows the exchange of H for K ions, thus abolishing the pH gradient across the cell membrane. When the internal and external K concentrations are approximately equal, the pH rapidly equilibrates to the pH of the bathing solution. A total of 20,000 events were acquired on a FACS ARIA II flow cytometer (Becton. Dickinson) for further analysis.
The fluorescent ratio values (640/580 nm) calculated for each pH point were further used to construct calibration curve in Prism software (GraphPad Software, Inc., San Diego, Calif.), from which the pHi values in treated cells were determined (Table 3).

In the case of “1-methylenesulfamide-1,7-dicarba-closo-dodecaborane [CB-19]”, half-maximal inhibition with HCT116 (IC50) required 89.3 ± 3.3 µM. In addition, the pHi with CCRF-CEM cells is 7.319.
For the substance “1-methylenesulfamide-3,3′-commo-bis(1,2-dicarba-3-cobalta(III)-closo-dodecabor)ate (1-) [CB-5]”, the IC50 in the assay on HCT116 turned out to be 75.3 ± 4.1 µM. Also, the pHi in the assay on CCRF-CEM cells is given as 7.378.
On the same counts, the results for “1-methylenesulfamide-9-phenyl-1,2-dicarba-closo-dodecaborane and 1-methylene-sulfamide-12-phenyl-1,2-dicarba-closo-dodecaborane [CB-8]” are 97.4 ± 3.4 µM and 7.427.
On the same counts, the results for “1-methylensulfamide-1,2-dicarba-closo-dodekaborane [CB-1]” are 63.9 ± 5.7 µM and 7.429.
On to “1-sulfamide-closo-1-carbadodecaborate (1-) [CB-3]”, for which the IC50 with HCT116 was no less than 100 µM. Besides, the pHi with CCRF-CEM cells is 7.362.
In the case of “7-methylensulfamide-8-phenyl-(7,8-nido-dikarbaundekabor)ate (1-) [CB-6]”, it took 78.4 ± 17 µM to reach half-maximal inhibition with HCT116 (IC50). Also, in the assay with CCRF-CEM cells, the pHi is 7.352.
On the same counts, the results for “7-methylensulfamide-(7,8-nido-dicarbaundekaborate) (1-) [CB-2]” are no less than 100 µM and 7.308.
On the same counts, the results for “8-butyloxysulfamide-3,3′-commo-bis(decahydro-1,2-dicarba-3-cobalta(III)-closo-dodekabor)ate (1-) [CB-16]” are 84.8 ± 3 µM and 7.442.
Take “8-diethyleneoxysulfamide-3,3′-commo-bis(decahydro-1,2-dicarba-3-cobalta(III)-closo-dodekabor)ate (1-) [CB-17]”: in the assay with HCT116, the IC50 was no less than 100 µM. Also, in the assay on CCRF-CEM cells, the pHi stood at 7.412.
On the same counts, the results for “8-ethylaminomethylsulfamide-8″-methoxy-3,3′-commo-bis(decahydro-1,2-dicarba-3-cobalta(III)-closo-dodecabor)ate (1-) [CB-15]” are 16.6 ± 0.2 µM and 7.472.
“8-methylensulfamide-8″-methoxy-3,3′-commo-bis(1,2-dicarba-3-cobalta(III)-closo-dodecabor)ate (1-) [CB-4]”: half-maximal inhibition with HCT116 (IC50) required 69.2 ± 3 µM. Moreover, the pHi in the assay with CCRF-CEM cells turned out to be 7.385.
On the same counts, the results for “8-propylenesulfamide-7-phenyl-(7,8-nido-dicarbaundecabor)ate (1-) [CB-13]” are 55.5 ± 1.8 µM and 7.452.
In the assay on HCT116, “9-sulfamide-9′-amine-2,2′-commo-bis(1,7,9-trikarba-2-ferra(II)-kloso-dodekabor)ane [CB-12]” showed a concentration for half-maximal inhibition (IC50) of no less than 100 µM. Moreover, the pHi in the assay with CCRF-CEM cells amounted to 7.395.
On the same counts, the results for “10-sulfamide-9′-amine-2,2′-commo-(1,7,10-tricarba-1′,7′,9′-tricarba-2-ferra (II)-closo-dodekabor)ane [CB-10]” are 96.4 ± 4.5 µM and 7.328.
On the same counts, the results for “Di(methylenesulfamide)-1,7-dicarba-closo-dodecaborane [CB-20]” are 99.6 ± 1.1 µM and 7.422.

What is called IC50 is the concentration that gives 50% inhibition. A low value points to greater potency.

These data come from patent publication US9290529B2, “Carbonic anhydrase inhibitors and method of their production” (USTAV ORGANICKE CHEMIE A BIOCHEMIE AKADEMIE VED CESKE …, priority 2011, dated 2016).
